Experiments:
[1] = biological target: NACHT, LRR and PYD domains-containing protein 3 (Homo sapiens, UniProt Q96P20); experiment: Inhibition of NLRP3 in human PBMC cells assessed as reduction in IL-1beta production; format: cell-based
[2] = Cytotoxicity against human THP-1 cells assessed as reduction in cell viability measured after 72 hrs by MTT assay; format: toxicity, cell-based; settings: read-out: TC50
THP-1 = experiment: Induction of pyroptosis in PMA-differentiated human THP-1 cells at 10 uM in presence of ATP by CytoTox 96 nonradioactive assay relative to control; format: functional

NACHT, LRR and PYD domains-containing protein 3, sequence (Q96P20 whole entry, the tested form may be a part): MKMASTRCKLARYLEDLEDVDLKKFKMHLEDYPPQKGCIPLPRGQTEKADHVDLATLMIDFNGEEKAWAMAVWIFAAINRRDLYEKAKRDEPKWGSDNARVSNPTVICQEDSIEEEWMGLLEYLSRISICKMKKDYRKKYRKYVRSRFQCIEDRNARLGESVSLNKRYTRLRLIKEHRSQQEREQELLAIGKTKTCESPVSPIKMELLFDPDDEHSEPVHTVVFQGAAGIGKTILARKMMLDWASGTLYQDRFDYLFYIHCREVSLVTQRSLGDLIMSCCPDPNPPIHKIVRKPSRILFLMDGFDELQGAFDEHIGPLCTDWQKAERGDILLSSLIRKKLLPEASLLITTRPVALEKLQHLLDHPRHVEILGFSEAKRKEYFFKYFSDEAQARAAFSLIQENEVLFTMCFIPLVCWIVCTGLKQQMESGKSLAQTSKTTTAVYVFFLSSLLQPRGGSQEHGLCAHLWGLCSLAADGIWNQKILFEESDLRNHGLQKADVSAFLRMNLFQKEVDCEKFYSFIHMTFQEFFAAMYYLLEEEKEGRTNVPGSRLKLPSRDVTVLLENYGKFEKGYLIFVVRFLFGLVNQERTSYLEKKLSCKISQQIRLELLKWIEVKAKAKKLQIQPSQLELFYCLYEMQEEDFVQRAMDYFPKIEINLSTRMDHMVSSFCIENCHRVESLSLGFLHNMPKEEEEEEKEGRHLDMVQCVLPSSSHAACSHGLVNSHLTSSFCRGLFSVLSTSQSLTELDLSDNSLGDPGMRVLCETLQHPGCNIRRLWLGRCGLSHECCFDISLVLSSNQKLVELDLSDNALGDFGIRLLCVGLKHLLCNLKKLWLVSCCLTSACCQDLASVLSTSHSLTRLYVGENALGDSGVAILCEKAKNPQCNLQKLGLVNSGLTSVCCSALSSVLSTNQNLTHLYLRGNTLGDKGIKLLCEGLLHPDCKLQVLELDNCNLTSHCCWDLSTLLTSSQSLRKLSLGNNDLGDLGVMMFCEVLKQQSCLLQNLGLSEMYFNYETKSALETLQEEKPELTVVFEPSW

Row | Structure (SMILES) | IC50 [1] | CC50 at 72 h [2] | Activity (THP-1)
1 | C=C1C(=O)[C@]23[C@H](O)[C@@H]1CC[C@H]2[C@@]12CO[C@@]3(O)[C@@H](O)[C@@H]1C(C)(C)CC[C@@H]2O | 5.18 µM | – | –
2 | C=C(Cc1ccccc1Cl)C(=O)NCCc1ccc(S(N)(=O)=O)cc1 | – | > 100 µM | 80.9%

Source: ChEMBL document CHEMBL5390258, “Recent Progress and Prospects of Small Molecules for NLRP3 Inflammasome Inhibition” (J Med Chem, 2023)
